# From ChEMBL document CHEMBL1132360, “N-Substituted (2,3-dihydro-1,4-benzodioxin-2-yl)methylamine derivatives as D(2) antagonists/5-HT(1A) partial agonists with potential as atypical antipsychotic agents” (J Med Chem, 1999)
# Target: 5-hydroxytryptamine receptor 3A (Rattus norvegicus) (UniProt P35563)
# Assay: The compound was tested for binding affinity against 5-hydroxytryptamine 3 receptor
# 5-hydroxytryptamine receptor 3A (Rattus norvegicus), sequence (P35563 whole entry, looked up): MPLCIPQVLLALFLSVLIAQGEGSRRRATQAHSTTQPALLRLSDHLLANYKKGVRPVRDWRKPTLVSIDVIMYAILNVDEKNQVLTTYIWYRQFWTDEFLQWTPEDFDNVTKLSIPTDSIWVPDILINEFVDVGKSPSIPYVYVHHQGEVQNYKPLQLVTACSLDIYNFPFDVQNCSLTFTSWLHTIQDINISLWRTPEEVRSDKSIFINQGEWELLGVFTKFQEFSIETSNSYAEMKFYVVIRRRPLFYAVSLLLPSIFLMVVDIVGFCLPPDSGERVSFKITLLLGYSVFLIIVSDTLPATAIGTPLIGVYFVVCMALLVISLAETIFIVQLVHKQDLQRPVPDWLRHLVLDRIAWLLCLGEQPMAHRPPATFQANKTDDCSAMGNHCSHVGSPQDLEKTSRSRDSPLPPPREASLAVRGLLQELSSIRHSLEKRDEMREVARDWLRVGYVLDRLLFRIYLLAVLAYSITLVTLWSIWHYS
compound,measurement,value
COc1ccccc1N1CCC(CNCC2COc3ccc(Cl)cc3O2)CC1 (stereo unspecified),Ki,> 1000 nM
